Data reported in patent publication US12497359B2, “Acrylamide derivatives” (NRG Therapeutics Ltd, priority 2020, dated 2025).
Converted amounts (≈) assume the structure as drawn.

Columns and labels:
[1] = Microsomal clearance assay, rat liver microsomes; assay type: in vitro ADME; conditions: average value from two experiments, read-out: Rat liver microsomes intrinsic clearance (CLint)
Procedure: The microsomal stability of test compounds was evaluated using rat liver microsomes (BioIVT) with and without the cofactors nicotinamide adenine dinucleotide phosphate (NADPH) and uridine-diphosphate-glucuronic acid (UDPGA). Reactions were performed in a final volume of 250 μl pre-warmed (37° C.) 100 mM phosphate buffer containing 5 mM MgCl2, 0.025 mg/ml alamethicin, and 0.5 mg/ml rat liver microsomes. NADPH and UDPGA were included at 1 mM and 2 mM respectively, where appropriate. Reactions were started with the addition of 1 μM (final concentration) test compound. Verapamil was used as the positive control. Solutions were incubated in a water bath at 37° C. and aliquots collected at 0.5, 5, 15, 30 and 60 min. Reactions were stopped by the addition of 5 volumes of cold acetonitrile with internal standards (200 nM caffeine and 100 nM tolbutamide). Samples were centrifuged at 3220 g for 40 min. An aliquot of supernatant was diluted 1:1 In ultra-pure H20, then used for LC-MS/MS analysis. Peak areas were determined from extracted ion chromatograms. The slope value, k, was determined by linear regression of the natural logarithm of the remaining percentage of the parent drug vs. incubation time curve. The in vitro half-life (in vitro t1/2) was determined from the slope value: in vitro t1/2=0.693/k. Conversion of the in vitro t1/2 (min) into the in vitro intrinsic clearance (in vitro CLint, in μL/min/mg protein) was done using the following equation (mean of duplicate determinations): in vitro Clint=(0.693/t1/2)*(Vol of incubation (μl)/amount of protein (mg)).

mPTP = mPTP activity assay in isolated rat liver mitochondria (Ca2+ retention, Fluo5N, FLIPR); assay type: biochemical; conditions: for mPTP Rat liver pIC50*: isolated rat liver mitochondria, average value from multiple experiments (n ≥ 2)
Description: Pharmacological inhibition or modulation of the mPTP can be measured in well characterised ‘Ca^2+ retention’ assays performed in isolated mitochondria. In vitro, isolated mitochondria rapidly sequester exogenous Ca^2+ until the intramitochondrial Ca^2+ concentration reaches the threshold for mPTP activation. Once the pore is activated, mitochondrial integrity is compromised and the stored Ca^2+ is released. The distribution of Ca^2+ between extra- and intra-mitochondrial compartments can be measured in real time with the use of membrane-impermeant Ca^2+ sensitive fluorescent dyes. Depending on the configuration of the assay, inhibition or modulation of the mPTP either delays the opening of the pore or increases the concentration of Ca^2+ required to induce mPTP opening.
mPTP activity was measured in mitochondria freshly isolated from female Sprague Dawley (250 to 300 gram) rat livers using the following method. Cervical dislocation was performed on the rat. The liver was then perfused in-situ with ˜40 ml cold Dulbecco's Phosphate Buffered Saline (DPBS) prior to dissection and transferred into 30 ml Isolation Buffer (250 mM Sucrose, 10 mM KCl, 1 mM EGTA, 1 mM EDTA, 25 mM HEPES, adjusted to pH 7.5 with 1 M NaOH). Each lobe of the liver was then removed from the buffer, minced using tweezers and a scalpel into ˜5 mm pieces then transferred into a 50 ml Potterton dounce homogenization tube on ice containing 30 ml ice-cold centrifugation buffer (300 mM Trehalose, 25 mM HEPES, 1 mM EGTA, 1 mM EDTA, 10 mM KCl, adjusted to pH 7.5 with 1 M NaOH and supplemented with 0.1% bovine serum albumin (BSA) and complete protease inhibitor cocktail (one tablet of inhibitor per 50 mls of buffer). Homogenisation was carried out using a teflon pestle at 1800 rpm. The slurry was centrifuged at 800 g for 10 min at 4° C., then the supernatant centrifuged at 10,000 g for 10 min. The pellet was washed once with FLIPR assay buffer (75 mM Mannitol, 25 mM Sucrose, 5 mM Potassium Phosphate Monobasic, 20 mM Tris base, 100 mM KCl, 0.1% BSA adjusted to pH 7.4 with 5 M HCl) centrifuged again, then resuspended in FLIPR assay buffer to a concentration of 8.8 mg/ml protein.
Test compounds (10 mM stock in DMSO) were serially diluted in DMSO in half log steps to generate 10 test concentrations (final concentrations in assay 30 μM to 1 nM). An intermediate dilution of 5 μl DMSO samples into 247 μl FLIPR assay buffer was carried out prior to transfer of 5 μl into duplicate wells of a 384 well polypropylene assay plate. Control wells were 0.5% (v/v) DMSO and 5 μM cyclosporin A.
A stock mitochondria/Fluo5N assay solution was prepared in 5.6 ml FLIPR assay buffer (at RT) supplemented with succinate disodium salt (10 mM), rotenone (1 μM), Fluo5N pentapotassium salt (2 μM) and 1 ml mitochondria suspension, then transferred (15 μl) into the assay plate containing test compounds and incubated for 10 min at RT. Assay plates were then transferred to a FLIPR Tetra plate reader (Molecular Devices). Dye fluorescence was then measured every 3 sec for a total of 10 min. After 12 sec, a 2.5 μl bolus of CaCl2 (75 μM) was added from a source plate containing 675 μM CaCl2 in FLIPR assay buffer. IC50 values for test compounds were calculated using the fluorescence value collected at the 10 min timepoint with % inhibition calculated using the DMSO control and cyclosporin A values as […] respectively.

PBS solubility = assay type: physicochemical; conditions: aqueous buffer, kinetic from dmso stock; PBS pH 7.4, 2 hr at 25° C.
Procedure: (§1) Test compounds were prepared as 10 mM stocks in DMSO and 15 μl samples transferred in duplicate into 1.5 mL glass flat bottom vials (BioTech Solutions). Fasted state simulated intestinal fluid (FaSSIF) or PBS (pH 7.4) was added to each vial to final volume of 500 μl. One PTFE encapsulated stir stick (V&P Scientific) was placed in each vial before sealing with PTFE/SIL plugs (BioTech Solutions). Vials were shaken at 1100 rpm for 2 hr at 25° C. Samples were then filtered through MultiScreen Solvinert filter plates (Millipore) via vacuum filtration. Aliquots of filtrate (5 μl) plus 5 μl DMSO were diluted in 490 μl 50% acetonitrile in water containing internal standard. The filtrate was analysed and quantified against a standard of known concentration using LC-MS/MS. Solubility values of the test compound and control compound were calculated as follows: [Sample]=(Area ratiosample*INJ VOL STD*DFsample*[STD])/(Area ratio STD*INJ VOLsample).

[2] = Hepatocyte clearance assay, rat; assay type: in vitro ADME; conditions: cryopreserved primary rat hepatocytes, average value from two experiments, read-out: Rat heps intrinsic clearance (CLint)
Procedure: (§2) In vitro clearance studies were performed in primary rat and human hepatocytes (BioIVT). Vials of cryopreserved rat or human hepatocytes were thawed in a 37° C. water bath for 2 min. Cells were transferred into thawing medium (Williams' Medium E containing 30% Percoll, 1× GlutaMAX-1, 15 mM HEPES, 5% fetal bovine serum (FBS), 4 μg/ml insulin, 1 μM dexamethasone), centrifuged at 100 g for 10 min then resuspended in culture medium (Leibovitz's L-15 Medium) at a concentration of 0.5×10^6 viable cells/mL (number of viable cells assessed using AO/PI staining). Hepatocytes (198 μL) were transferred into wells of a 96-well non-coated plate and placed in a 37° C. incubator for 10 min. Test compound solutions were prepared from 10 mM stocks in DMSO, diluted to 100 μM in 50% (v/v in water) acetonitrile. Test compound samples (2 μl) were added to each well of hepatocytes and incubated at 37° C. Samples (25 μl) were collected at t=0, 15, 30, […] and 120 min, mixed with 6 volumes (150 μl) of acetonitrile containing internal standard (100 nM alprazolam, 200 nM caffeine and 100 nM tolbutamide), vortexed for 5 min and centrifuged for 45 min at 3220 g. An aliquot of supernatant (100 μL) was diluted with 100 μL ultra-pure water, and the mixture was used for LC/MS/MS analysis. All incubations were performed in duplicate. Peak areas were determined from extracted ion chromatograms. The slope value, k, was determined by linear regression of the natural logarithm of the remaining percentage of the parent drug vs. incubation time curve. The in vitro half-life (in vitro t1/2) was determined from the slope value: in vitro t1/2=0.693/k. Conversion of the in vitro t1/2 (in min) into the in vitro intrinsic clearance (in vitro CLint, in μL/min/1×10^6 cells) was done using the following equation (mean of duplicate determinations): • in vitro CLint=kV/N • V=incubation volume (0.2 mL) • N=number of hepatocytes per well (0.1×10^6 cells). Microsomal Clearance Assay

FaSSIF solubility = assay type: physicochemical; conditions: kinetic from dmso stock, Fasted state simulated intestinal fluid, 2 hr at 25° C.
Procedure: as §1

[3] = Hepatocyte clearance assay, human; assay type: in vitro ADME; conditions: cryopreserved primary human hepatocytes, average value from two experiments, read-out: Human heps intrinsic clearance (CLint)
Procedure: as §2

SMILES	microsomal CLint at 1 µM [1]	mPTP Rat liver pIC50* (mPTP)	solubility at 2 h (PBS solubility)	hepatocyte CLint at 1 µM [2]	solubility at 2 h (FaSSIF solubility)	hepatocyte CLint at 1 µM [3]	activity in the rat liver mitochondria assay (mPTP; comparison among Example compounds, in words)
C[C@@H]1CCCC[C@H]1NC(=O)/C=C/c1ccc2cn[nH]c2c1 (racemic) [Example 4, (E)-3-(1H-indazol-6-yl)-N-((1R,2R)-2-methylcyclohexyl)acrylamide]	39 µL/min/mg	6.3	5.2 µM (≈ 1.47 µg/mL)	68 µL/min/1e6 cells			
Cc1c(F)cccc1NC(=O)/C=C/c1ccc2cn[nH]c2c1C [Example 1, (E)-N-(3-fluoro-2-methylphenyl)-3-(7-methyl-1H-indazol-6-yl)acrylamide]	118 µL/min/mg	7.1	0.11 µM (≈ 0.034 µg/mL)		2 µM (≈ 0.619 µg/mL)		
O=C(/C=C/c1ccc2cn[nH]c2c1)NC1CCc2ccccc21 (centres unmarked) [Example 2, (E)-N-(2,3-dihydro-1H-inden-1-yl)-3-(1H-indazol-6-yl)acrylamide]	59 µL/min/mg	7.6	10 µM (≈ 3.03 µg/mL)	33 µL/min/1e6 cells		14 µL/min/1e6 cells	
O=C(/C=C/c1ccc2cn[nH]c2c1)NC1CCc2cccc(F)c21 (centres unmarked) [Example 5, (E)-N-(7-fluoro-2,3-dihydro-1H-inden-1-yl)-3-(1H-indazol-6-yl)acrylamide]	55 µL/min/mg	6.3	2.5 µM (≈ 0.803 µg/mL)				
O=C(/C=C/c1ccc2cn[nH]c2n1)NC1CCc2ccccc21 (centres unmarked) [Example 36, (E)-N-(2,3-dihydro-1H-inden-1-yl)-3-(1H-pyrazolo[3,4-b]pyridin-6-yl)acrylamide]		6.3			45 µM (≈ 13.7 µg/mL)	12 µL/min/1e6 cells	

The next lines start with results.

microsomal CLint at 1 µM [1]	mPTP Rat liver pIC50* (mPTP)	solubility at 2 h (PBS solubility)	hepatocyte CLint at 1 µM [2]	solubility at 2 h (FaSSIF solubility)	hepatocyte CLint at 1 µM [3]	SMILES	activity in the rat liver mitochondria assay (mPTP; comparison among Example compounds, in words)
38 µL/min/mg	7.2	4.1 µM (≈ 1.32 µg/mL)				O=C(/C=C/c1ccc2cn[nH]c2c1)NC1CCc2cc(F)ccc21 (centres unmarked) [Example 7, (E)-N-(5-fluoro-2,3-dihydro-1H-inden-1-yl)-3-(1H-indazol-6-yl)acrylamide]	
41 µL/min/mg	6.9	6.3 µM (≈ 2.02 µg/mL)				O=C(/C=C/c1ccc2cn[nH]c2c1)NC1CCc2c(F)cccc21 (centres unmarked) [Example 8, (E)-N-(4-fluoro-2,3-dihydro-1H-inden-1-yl)-3-(1H-indazol-6-yl)acrylamide]	
	7.2	0.4 µM (≈ 0.129 µg/mL)	61 µL/min/1e6 cells	11 µM (≈ 3.53 µg/mL)		O=C(/C=C/c1ccc2cn[nH]c2c1F)NC1CCc2ccccc21 (centres unmarked) [Example 9, (E)-N-(2,3-dihydro-1H-inden-1-yl)-3-(7-fluoro-1H-indazol-6-yl)acrylamide]	
58 µL/min/mg	7.3	1.4 µM (≈ 0.45 µg/mL)	45 µL/min/1e6 cells		26.7 µL/min/1e6 cells	O=C(/C=C/c1cc(F)c2cn[nH]c2c1)NC1CCc2ccccc21 (centres unmarked) [Example 11, (E)-N-(2,3-dihydro-1H-inden-1-yl)-3-(4-fluoro-1H-indazol-6-yl)acrylamide]	
	7.0		95 µL/min/1e6 cells	4 µM (≈ 1.35 µg/mL)		O=C(/C=C/c1cc(Cl)c2cn[nH]c2c1)NC1CCc2ccccc21 (centres unmarked) [Example 13, (E)-3-(4-chloro-1H-indazol-6-yl)-N-(2,3-dihydro-1H-inden-1-yl)acrylamide]	
	8.1				21 µL/min/1e6 cells	Cc1ccc(F)c(C)c1NC(=O)/C=C/c1ccc2cn[nH]c2c1 [Example 28, (E)-N-(3-fluoro-2,6-dimethylphenyl)-3-(1H-indazol-6-yl)acrylamide]	highest activity
	6.3	59 µM (≈ 20.7 µg/mL)	101 µL/min/1e6 cells		36 µL/min/1e6 cells	O=C(/C=C/c1ccc2cn[nH]c2c1)Nc1ccccc1CN1CC(F)C1 [Example 31, (E)-N-(2-((3-fluoroazetidin-1-yl)methyl)phenyl)-3-(1H-indazol-6-yl)acrylamide]	
51 µL/min/mg	6.0	13 µM (≈ 3.85 µg/mL)				Cc1c(F)cccc1NC(=O)/C=C/c1cnc2cn[nH]c2c1 [Example 34, (E)-N-(3-fluoro-2-methylphenyl)-3-(1H-pyrazolo[4,3-b]pyridin-6-yl)acrylamide]	
